Here are results for 1 molecule from article PMC5741723, “Residues His172 and Lys238 are Essential for the Catalytic Activity of the Maleylacetate Reductase from Sphingobium chlorophenolicum Strain L-1” (Scientific Reports, 2017).

Experiment [1] concerns the target T1, maleylacetate reductase (PcpE) (Sphingobium chlorophenolicum, UniProt F6F233).
T1 construct: gene Sphch_4020; full length, 352 residues; recombinant His6-tagged, tag kept (SPR); mutants in pET30a(+) NdeI/XhoI, E. coli BL21-AI
Put plainly: surface plasmon resonance. It counts as binding. Conditions: PcpE immobilised by amine coupling; PBS-T, 5% DMSO, pH 7.4; n = 5.

For experiment [2], the target named is T1, maleylacetate reductase (PcpE). As to the kind of experiment: inhibition of MA reduction, NADH loss at […] nm. In kind it is biochemical. The conditions noted are these: 360 µM NADH, 400 µM MA, 20 mM Tris-HCl pH 7.0.

Usually Kd stands for a measure of binding affinity in units of concentration. Higher therefore signals a looser complex.

T1 sequence (F6F233 entry or part of it): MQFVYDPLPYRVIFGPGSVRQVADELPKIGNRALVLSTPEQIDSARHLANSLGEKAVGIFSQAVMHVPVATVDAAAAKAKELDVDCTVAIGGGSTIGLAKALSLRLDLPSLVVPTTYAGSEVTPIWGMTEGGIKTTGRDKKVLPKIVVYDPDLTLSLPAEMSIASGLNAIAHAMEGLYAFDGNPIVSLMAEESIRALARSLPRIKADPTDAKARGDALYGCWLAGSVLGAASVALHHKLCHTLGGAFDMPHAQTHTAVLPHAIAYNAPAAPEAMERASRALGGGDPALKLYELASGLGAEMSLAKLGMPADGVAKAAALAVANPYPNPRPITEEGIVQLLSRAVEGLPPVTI

In experiment [1], `Oc1c(Cl)c(Cl)c(Cl)c(Cl)c1Cl` [PCP, pentachlorophenol] had a Kd of 12.8 ± 0.2 µM. Further, in experiment [2], the “% catalytic activity remaining at 5 μM” value is on record as ~ 30%.
